ChEMBL document CHEMBL4118116, “Benzoxazine derivatives of phytophenols show anti-plasmodial activity via sodium homeostasis disruption” (Bioorg Med Chem Lett, 2018)
The source made the active and inactive calls. No cut-off for these calls is given here.

Legend:
Plasmodium falciparum [1] = experiment: Growth inhibition of schizont stage Plasmodium falciparum 3D7 infected in human erythrocytes at 50 uM after 46 hrs by ethidium bromide staining based flow cytometric analysis relative to control; format: functional; conditions: 3D7, 46 h, read-out: GI
[2] = tested on: Plasmodium falciparum 3D7; experiment: Inhibition of P-type cation ATPase ATP4 in trophozoite stage of Plasmodium falciparum 3D7 infected in human erythrocytes assessed as increase in Na+/- levels at 50 uM by sodium green dye based microscopic analysis; format: cell-based
HepG2 = experiment: Cytotoxicity against human HepG2 cells assessed as reduction in cell viability at 50 uM after 24 hrs by MTT assay; format: cell-based; conditions: hepg2, 24 h
Plasmodium falciparum [3] = experiment: Growth inhibition of schizont stage Plasmodium falciparum 3D7 infected in human erythrocytes at 10 uM after 46 hrs by ethidium bromide staining based flow cytometric analysis relative to control; format: functional; conditions: 3D7, 46 h, read-out: GI
Plasmodium falciparum [4] = experiment: Antiplasmodial activity against late trophozoite stage of Plasmodium falciparum 3D7 infected in human erythrocytes measured after 46 hrs by ethidium bromide staining based flow cytometric analysis; format: functional, organism-based; conditions: for EC50: 3D7, 46 h
Plasmodium falciparum [5] = experiment: Induction of mitochondrial membrane potential loss in trophozoite stage of Plasmodium falciparum 3D7 infected in human erythrocytes assessed as decrease in JC1 red to JC1 green ratio at 50 uM by JC1 staining based microscopic analysis; format: functional, organism-based
Plasmodium falciparum [6] = experiment: Ratio of EC50 for antiplasmodial activity against late trophozoite stage of Plasmodium falciparum 3D7 infected in human erythrocytes to EC50 for antiplasmodial activity against late trophozoite stage of Plasmodium falciparum 3D7 infected in human erythrocytes in presence of graphene oxide 2; format: functional
Plasmodium falciparum [7] = experiment: Antiplasmodial activity against late trophozoite stage of Plasmodium falciparum 3D7 infected in human erythrocytes measured after 46 hrs in presence of graphene oxide 2 by ethidium bromide staining based flow cytometric analysis; format: functional, organism-based; conditions: 3D7, 46 h
[8] = tested on: Plasmodium falciparum 3D7; experiment: (§1) Inhibition of P-type cation ATPase ATP4 in trophozoite stage of Plasmodium falciparum 3D7 infected in human erythrocytes assessed as swelling of intraerythrocytic parasites by measuring diameter of parasite at 50 uM after 4 hrs by sodium green dye based microscopic analysis (reference value: 3.5 micrometer); format: cell-based
Plasmodium falciparum [9] = experiment: Antiplasmodial activity against late trophozoite stage of Plasmodium falciparum 3D7 infected in human erythrocytes measured after 46 hrs in presence of graphene oxide 1 by ethidium bromide staining based flow cytometric analysis; format: functional, organism-based; conditions: 3D7, 46 h
[10] = tested on: Plasmodium falciparum 3D7; experiment: as §1, with “of parasitized RBC” for “of parasite”, “value: 5.03” for “value: 3.5”; format: cell-based

Row | SMILES | inhibition of growth at 50 µM (Plasmodium falciparum [1]) [%] | inhibition [2] | Activity (HepG2) | inhibition of growth at 10 µM (Plasmodium falciparum [3]) [%] | Activity (Plasmodium falciparum [4]) | EC50 (Plasmodium falciparum [4]) [µM] | Activity (Plasmodium falciparum [5]) | Ratio EC50 (Plasmodium falciparum [6]) | EC50 (Plasmodium falciparum [7]) [nM] | Activity [8] [µm] | EC50 (Plasmodium falciparum [9]) [µM] | Activity [10] [µm]
1 | C=CCc1cc2c(c(OC)c1)OCN(Cc1ccco1)C2 | 58.5 | Active | Non-Toxic | 4.7 | Dose-dependent effect | 22 | Active | – | – | – | – | –
2 | C/C=C/c1cc2c(c(OC)c1)OCN(Cc1ccco1)C2 | 73 | Active | Non-Toxic | 14.9 | Dose-dependent effect | 17.5 | Active | 36 | 490 | 4.4 | 7.19 | 6.3
3 | C/C=C/c1ccc(O)c(OC)c1 | – | – | Non-Toxic | – | – | – | – | – | – | – | – | –
4 | C=CCc1ccc(O)c(OC)c1 [EUGENOL] | – | – | Non-Toxic | – | – | – | – | – | – | – | – | –
